# Test results: US7658928B2, “Method of vaccination comprising administering an antigen and a cathelicidin derived antimicrobial peptide” (Intercell AG, priority 2000, dated 2010)
# How the values were obtained:
# neutrophils = details: Agerberth, Charo et al. 2000; De, Chen et al. 2000; cited from earlier work
# [1] = tested on: P388D1 cells (murine monocyte-macrophage antigen presenting cell line); experiment: TRANSloading assay: uptake of fluorescein-tagged antigenic peptide into P388D1 cells with carrier-peptides, flow cytometry; format: cell-based; details: for uptake of antigens in dendritic cells: summary statement, cells of mice
# [2] = tested on: IFN-γ-producing specific cells (TRP-2 181-188 VYDFFVWL); experiment: IFN-γ ELISpot after vaccination of mice with TRP-2 peptide plus carrier-peptide; format: in vivo, mice (C57BL/6); details: s.c. days 0, 7, 14, 100 μg VYDFFVWL + carrier-peptide, two weeks after 3rd vaccination, versus peptide alone or peptide plus poly-L-arginine; for IFN-γ-producing specific cells, splenocytes: FIG. 10
# Description: The groups of mice were injected as follows (amounts indicated/per mouse). • (1) 100 μg […] (SEQ ID NO:25) • (2) 100 μg […] (SEQ ID NO:25)+100 μg poly-L-arginine • (3) 100μ […] (SEQ ID NO:25)+[…] cathelicidin derived antimicrobial peptide (SEQ ID NO:1) • (4) 100 μg […] (SEQ ID NO:25)+500 μg bovine indolicidin (SEQ ID NO:3)
# Two weeks after the 3rd vaccination, draining (inguinal) lymph nodes and spleens were removed and […].
# tumor growth = details: co-injection with an appropriate peptide as a vaccine, mouse models (Schmidt, Buschle et al. 1997); cited from earlier work
# [3] = tested on: human CD1a positive dendritic cells; experiment: TRANSloading of human dendritic cells with MHC class I and MHC class II peptides by LL-37; format: cell-based
# Description: To compare the efficiency of peptide delivery of these diverse “carrier-peptides”, the amount of peptide uptake into APCs was monitored by incubating P388D1 cells (murine monocyte-macrophage antigen presenting cell line; purchased from ATCC (TIB-63), or human CD1a positive (derived from human HLA-A2 positive donors, CD14+ positive PBMCS) dendritic cells, for 1 h at 37° C. with a constant amount of fuorescein-tagged peptide alone or in combination with diverse “carrier-peptides” at concentrations indicated. Before analysing the cells by flow cytometry, the cells were washed extensively to remove free peptide. The relative amount of fluorescein-tagged peptide taken up by the cells was measured by flow-cytometry.
# FIG. 8a • (1) no peptide (cells alone) • (2) 2.5 μg FL-[…] (SEQ ID NO:23) (MHC class I; peptide alone) • (3) 2.5 μg FL-[…] (SEQ ID NO:23) (MHC class I)+30 μg LL-37 (SEQ ID:2)
# FIG. 8b • (1) no peptide (cells alone) • (2) 2.5 μg FL-[…] (SEQ ID NO:24) (MHC class II; peptide alone) • (3) 2.5 μg FL-[…] (SEQ ID NO:24) (MHC class II)+30 μg LL-37 (SEQ ID:2)
# mast cells = mast cells (Niyonsaba, Someya et al. 2001); cited from earlier work
# CD4+ T cells = details: Agerberth, Charo et al. 2000; De, Chen et al. 2000; cited from earlier work
# [4] = tested on: peripheral blood monocytes; details: utilizing formyl peptide receptor-like 1 (FPRL1) (De, Chen et al. 2000); cited from earlier work
# [5] = tested on: immature and mature dendritic cells; details: Yang, Chen et al. 2001; cited from earlier work
substance,measurement,setting,value
PR-39: porcine proline-arginine-rich 39-amino-acid cathelicidin peptide (RRRPRPPYLPRPRPPPFFPPRLPPRIPPGFPPRFPPRFPGKR) [reference compound],chemotactic activity for neutrophils,neutrophils,exert chemotactic activity
"murine cathelicidin derived antimicrobial peptide: murine cathelin-related antimicrobial peptide, SEQ ID NO:1 (SRLAGLLRKGGEKIGEKLKKIGQKIKNFFQKL)",uptake of antigens in dendritic cells,[1],enhance the uptake of antigens
same,"IFN-γ-producing specific cells, splenocytes",[2],more IFN-γ-producing specific cells
NH2-ILPWKWPWWPWRR-CONH2 [bovine indolicidin],uptake of antigens in dendritic cells,[1],enhance the uptake of antigens
same,"IFN-γ-producing specific cells, lymph node cells",[2]; FIG. 9,more IFN-γ-producing specific cells
same,"IFN-γ-producing specific cells, splenocytes",[2],more IFN-γ-producing specific cells
poly-L-lysine,protection from tumor growth,tumor growth,protects animals from tumor growth
"LL-37: human cathelicidin derived antimicrobial peptide, C-terminal domain of hCAP-18 (LLGDFFRKSKEKIGKEFKRIVQRIKDFLRNLVPRTES)",pulsing of human dendritic cells with MHC class I antigenic peptide,"[3]; FIG. 8a, 2.5 μg FL-[…] + 30 μg LL-37",to a significant extent
same,pulsing of human dendritic cells with MHC class II antigenic peptide,"[3]; FIG. 8b, 2.5 μg FL-[…] + 30 μg LL-37",to a significant extent
same,uptake of antigens in dendritic cells,"[3]; summary statement, cells of men",enhance the uptake of antigens
same,histamine release,mast cells,shown to induce
same,intracellular calcium mobilization,mast cells,shown to induce
same,chemotactic activity for neutrophils,neutrophils,exert chemotactic activity
same,chemotactic activity for CD4+ T cells,CD4+ T cells,exert chemotactic activity
same,chemotaxis of peripheral blood monocytes,[4],induces chemotaxis
same,chemotactic activity for immature and mature dendritic cells,[5],no chemotactic activity
poly-L-arginine,protection from tumor growth,tumor growth,protects animals from tumor growth
"bovine dodecapeptide: bovine cathelicidin derived antimicrobial dodecapeptide, SEQ ID NO:4, linear form in Example 3 (RLCRIVVIRVCR)",pulsing effect with increasing amounts of carrier-peptide,"[1]; Example 3, FIG. 6, 2 μg FL-LFEAIEGFI + 18.75, 37.5, 75, 150 μg linear bovine dodecapeptide",increased significantly
same,uptake of antigens in dendritic cells,[1],enhance the uptake of antigens
